Experiment [1] concerns the target T1, Androgen receptor (Homo sapiens, UniProt P10275).
T1 sequence (P10275 whole entry): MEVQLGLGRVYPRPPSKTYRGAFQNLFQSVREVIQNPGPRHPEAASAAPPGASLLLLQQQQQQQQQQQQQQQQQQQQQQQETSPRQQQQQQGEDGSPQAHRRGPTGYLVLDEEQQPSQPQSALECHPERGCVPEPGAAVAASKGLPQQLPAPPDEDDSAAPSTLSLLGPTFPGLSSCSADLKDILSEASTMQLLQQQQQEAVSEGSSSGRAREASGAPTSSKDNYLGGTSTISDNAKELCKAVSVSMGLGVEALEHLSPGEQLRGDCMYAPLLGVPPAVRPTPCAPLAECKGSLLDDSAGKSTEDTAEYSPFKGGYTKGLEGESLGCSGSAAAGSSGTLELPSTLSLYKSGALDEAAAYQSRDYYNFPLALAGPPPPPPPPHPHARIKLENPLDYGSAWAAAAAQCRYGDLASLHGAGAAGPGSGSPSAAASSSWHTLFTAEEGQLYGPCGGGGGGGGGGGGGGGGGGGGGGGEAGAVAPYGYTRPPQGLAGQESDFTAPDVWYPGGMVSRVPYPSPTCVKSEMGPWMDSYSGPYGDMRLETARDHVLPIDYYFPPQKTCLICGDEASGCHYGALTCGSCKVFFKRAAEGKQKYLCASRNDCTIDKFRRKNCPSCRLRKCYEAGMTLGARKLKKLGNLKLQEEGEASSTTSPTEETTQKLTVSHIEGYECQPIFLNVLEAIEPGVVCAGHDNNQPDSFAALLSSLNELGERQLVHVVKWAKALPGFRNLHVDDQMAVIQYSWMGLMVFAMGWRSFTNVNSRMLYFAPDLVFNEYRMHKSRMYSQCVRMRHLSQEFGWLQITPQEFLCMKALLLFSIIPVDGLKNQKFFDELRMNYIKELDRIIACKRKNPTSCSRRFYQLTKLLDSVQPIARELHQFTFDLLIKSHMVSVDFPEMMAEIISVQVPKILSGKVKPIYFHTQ
Description: biochemical.
Description: In vitro binding affinity at human androgen receptor transfected into COS cells.

Experiment [2] concerns the target T1, Androgen receptor.
Description: In vitro agonistic activity against human androgen receptor using cotransfection assay in CV-1 cells.
The next experiment concerns the target T2, Glucocorticoid receptor (Homo sapiens, UniProt P04150).
T2 sequence (P04150 whole entry): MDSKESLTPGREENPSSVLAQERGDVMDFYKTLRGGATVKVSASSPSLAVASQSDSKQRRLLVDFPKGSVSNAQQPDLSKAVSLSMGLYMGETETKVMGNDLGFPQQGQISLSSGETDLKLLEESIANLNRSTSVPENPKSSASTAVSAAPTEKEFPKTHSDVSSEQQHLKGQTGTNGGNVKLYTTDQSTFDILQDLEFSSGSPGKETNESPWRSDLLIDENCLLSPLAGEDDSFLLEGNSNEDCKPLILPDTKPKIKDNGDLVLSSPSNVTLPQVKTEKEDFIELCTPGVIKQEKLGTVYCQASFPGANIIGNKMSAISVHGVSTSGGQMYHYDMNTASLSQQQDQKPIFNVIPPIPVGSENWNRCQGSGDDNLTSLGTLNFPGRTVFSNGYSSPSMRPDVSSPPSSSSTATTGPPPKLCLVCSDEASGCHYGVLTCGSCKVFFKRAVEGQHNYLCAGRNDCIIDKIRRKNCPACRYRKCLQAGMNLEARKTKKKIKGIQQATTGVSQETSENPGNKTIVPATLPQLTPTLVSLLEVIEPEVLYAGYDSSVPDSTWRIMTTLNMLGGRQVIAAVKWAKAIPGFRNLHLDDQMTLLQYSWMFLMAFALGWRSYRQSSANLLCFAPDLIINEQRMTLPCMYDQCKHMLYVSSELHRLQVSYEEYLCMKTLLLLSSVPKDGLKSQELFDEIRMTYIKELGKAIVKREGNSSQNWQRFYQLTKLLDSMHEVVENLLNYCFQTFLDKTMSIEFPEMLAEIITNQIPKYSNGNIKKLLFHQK
Nature of the experiment: In vitro antagonistic activity against human glucocorticoid receptor (hGR); not active. Format: functional.

In the next experiment the target is Estrogen receptor (Homo sapiens, UniProt Q92731+P03372). Nature of the experiment: In vitro antagonistic activity against human estrogen receptor (hER); not active. In kind it is functional.
Experiment [3] has as its target T1, Androgen receptor. The source holds these as a separate data set.
The target of experiment [4] is T3, Progesterone receptor (Homo sapiens) (UniProt P06401).
T3 sequence (whole entry): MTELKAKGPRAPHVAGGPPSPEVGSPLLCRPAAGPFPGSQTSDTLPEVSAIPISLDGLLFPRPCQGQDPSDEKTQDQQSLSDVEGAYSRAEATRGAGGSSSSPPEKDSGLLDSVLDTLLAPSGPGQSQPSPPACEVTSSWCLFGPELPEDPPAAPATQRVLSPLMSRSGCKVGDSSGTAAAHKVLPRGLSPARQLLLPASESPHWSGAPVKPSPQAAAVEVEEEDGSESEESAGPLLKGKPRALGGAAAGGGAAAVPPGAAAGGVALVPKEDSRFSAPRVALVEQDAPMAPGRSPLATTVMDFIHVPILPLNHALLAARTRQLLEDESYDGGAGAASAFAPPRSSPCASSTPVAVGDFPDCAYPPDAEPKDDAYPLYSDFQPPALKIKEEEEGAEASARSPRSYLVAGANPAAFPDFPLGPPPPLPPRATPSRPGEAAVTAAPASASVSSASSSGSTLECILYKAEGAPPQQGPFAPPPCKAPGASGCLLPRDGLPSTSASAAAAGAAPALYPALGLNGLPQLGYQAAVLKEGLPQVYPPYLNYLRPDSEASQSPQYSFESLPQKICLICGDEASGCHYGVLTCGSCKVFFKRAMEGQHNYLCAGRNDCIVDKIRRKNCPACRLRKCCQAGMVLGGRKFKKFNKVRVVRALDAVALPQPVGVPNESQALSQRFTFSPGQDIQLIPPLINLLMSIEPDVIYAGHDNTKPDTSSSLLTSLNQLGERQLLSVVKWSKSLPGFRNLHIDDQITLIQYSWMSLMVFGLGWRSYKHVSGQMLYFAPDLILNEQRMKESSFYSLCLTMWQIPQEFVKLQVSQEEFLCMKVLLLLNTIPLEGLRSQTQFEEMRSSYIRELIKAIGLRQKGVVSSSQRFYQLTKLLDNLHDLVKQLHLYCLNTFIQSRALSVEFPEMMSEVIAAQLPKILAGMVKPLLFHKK
Nature of the experiment: (§1) In vitro antagonistic activity against human progesterone receptor (hPR). In kind it is functional.

The target in the next experiment is T4, Progesterone receptor (Homo sapiens, UniProt P06401).
T4 sequence (P06401 whole entry): T3 sequence (whole entry)
Described as §1. Format: functional.

In the case of `CCC1Nc2cc3oc(=O)cc(C(F)(F)F)c3cc2CC1C` (stereo not given), the half-maximal inhibitory concentration (IC50) was 7 nM on Androgen receptor [1]; above 10000 nM against Glucocorticoid receptor; above 10000 nM against Estrogen receptor; above 10 nM against Androgen receptor [3]; 440 nM at Progesterone receptor. The compound also came in with a concentration giving a half-maximal response (EC50) on Androgen receptor [2] of 1 nM. Also, the Efficacy in experiment [4] was determined as 88%.
As to `CCCC1CCNc2cc3oc(=O)cc(C(F)(F)F)c3cc21` (stereo not given), the half-maximal inhibitory concentration (IC50) on Androgen receptor [1] is 5 nM; at Glucocorticoid receptor, above 10000 nM; against Estrogen receptor, above 10000 nM; at Androgen receptor [3], above 10 nM; at Progesterone receptor, 106 nM. At Androgen receptor [2], this compound had an EC50 of 5 nM. For the same compound, the Efficacy in experiment [4] was 89%.
On to `O=c1cc(C(F)(F)F)c2cc3c(cc2o1)NCCC3C(F)(F)F` (stereo not given), for which the 50% inhibitory concentration (IC50) against Androgen receptor [1] was 2 nM; at Glucocorticoid receptor, above 10000 nM; against Estrogen receptor, above 10000 nM; against Androgen receptor [3] it was above 10 nM; against Progesterone receptor, 270 nM. Further, a half-maximal effect on Androgen receptor [2] (EC50) was put at 2 nM. In addition, in experiment [4], the Efficacy is 68%.
`CC1CCNc2cc3oc(=O)cc(C(F)(F)F)c3cc21` (stereo not given): the IC50 was 1 nM at Androgen receptor [1]; above 10000 nM against Glucocorticoid receptor; above 10000 nM on Estrogen receptor; above 10 nM on Androgen receptor [3]; 280 nM at Progesterone receptor. Also, a half-maximal response on Androgen receptor [2] (EC50) required 2 nM. For the same compound, in experiment [4], the Efficacy was determined as 83%.
Turning to `CCC1CCNc2cc3oc(=O)cc(C(F)(F)F)c3cc21` (stereo not given), the IC50 was 1 nM at Androgen receptor [1]; above 10000 nM against Glucocorticoid receptor; above 10000 nM at Estrogen receptor; above 10 nM at Androgen receptor [3]; 200 nM against Progesterone receptor. The compound further had a concentration giving a half-maximal response (EC50) at Androgen receptor [2] of 2 nM. In experiment [4], this compound displayed an Efficacy of 91%.

What is called IC50 is the concentration that gives 50% inhibition. By EC50 is commonly meant the concentration giving half of the maximal effect.

The values above are taken from ChEMBL document CHEMBL1132082, “Nonsteroidal androgen receptor agonists based on 4-(trifluoromethyl)-2H-pyrano[3,2-g]quinolin-2-one” (Bioorg Med Chem Lett, 1999).
